This note sets out measurements from patent US4835161A, “Anti-histaminic compositions containing n-heterocyclyl-4-piperidinamines” (Janssen Pharmaceutica N.V., priority 1987, dated 1989).

For the assay, the system named is compound 48/80-induced lethality. Kind of assay: Protection of rats from compound 48/80-induced lethality. It counts as in vivo, rat (male, inbred Wistar strain). The note with it: Rattus norvegicus; subcutaneous or oral; 1 h before compound 48/80 0.5 mg/kg i.v.; survival after 4 h; dose protecting 50% of animals; read-out: compound 48/80 lethality test in rats-ED50. The protocol: Protection of rats from compound 48/80-induced lethality
The protection from compound 48/80-induced lethal circulatory collapse appears to be a simple way of evaluating quantitatively the antihistaminic activity of test compounds. Male rats of an inbred Wistar strain, weighing 240-260 g were used in the experiment. After overnight starvation the rats were transferred to conditioned laboratories (temp.=21±1° C., relative humidity=65±5%). The rats were treated subcutaneously or orally with a test compound or with the solvent (NaCl solution, 0.9%). One hour after treatment there was injected intravenously compound 48/80, freshly dissolved in water, at a dose of 0.5 mg/kg (0.2 ml/100 g of body weight). […] Survival after 4 hours is therefore considered to be a safe criterion of a protective effect of drug administration. Said ED50 -values are the values in mg/kg body weight at which the tested compounds protect 50% of the tested animals against compound 48/80-induced lethality.

Consider `Fc1ccc(Cn2c(NC3CCNCC3)nc3cccnc32)cc1` [compound 123], for which the ED50 came to 0.08 mg/kg. To `Fc1ccc(Cn2c(NC3CCNCC3)nc3ncccc32)cc1` [compound 135] belongs 0.01 mg/kg; to `c1coc(Cn2c(NC3CCNCC3)nc3cccnc32)c1` [compound 140, 3-(2-furanylmethyl)-N-(4-piperidinyl)-3H-imidazo[4,5-b]pyridin-2-amine], 0.08 mg/kg; to `Cc1ccc(Cn2c(NC3CCNCC3)nc3cccnc32)o1` [compound 166, 3-[(5-methyl-2-furanyl)methyl]-N-(4-piperidinyl)-3H-imidazo[4,5-b]pyridin-2-amine], 0.04 mg/kg.
